Results on 15 molecules are retold here after ChEMBL document CHEMBL1138462 (J Med Chem, 2009).

The Ki is a dissociation constant, usually derived from enzyme kinetics or from competition with a known ligand. What is called half-life is the time needed for the level to fall by half in the phase considered. One may read the bioavailability as dose-corrected exposure relative to a reference, in per cent.

Activity calls are given as the source filed them.

For one data set, the target named is Cannabinoid receptor 2 (Homo sapiens, UniProt P34972). Nature of the data set: Binding affinity to CB2 receptor.
The species entered for data set [1] is Rattus norvegicus. Nature of the data set: Toxicity in Sprague-Dawley rat assessed as behavioral side effects and rapid respiration at concentration >=10 fold of plasma level. The format is organism-based. Particulars: in vivo.
The test system of data set [2] is Mus musculus. The data set is described as follows: Inhibition of CP-55940-induced locomotor activity in ICR mouse at 1 mg/kg, sc administered 15 mins before CP-55940 challenge measured after 25 mins. The data set is classed as functional, organism-based. On the set-up: dose 1 mg/kg.
The species named for data set [3] is Rattus norvegicus. Nature of the data set: Anorectic activity in acute food intake rat model assessed as increase in energy expenditure. The data set is classed as functional, organism-based.
Data set [4] is filed under the species Rattus norvegicus. Nature of the data set: Anorectic activity in acute food intake rat model assessed as decrease in food intake. The data set is classed as functional, organism-based.
Data set [5] is described as follows: Half life in rat at 1 mg/kg, iv and 5 mg/kg, po. The format is ADME, organism-based. Particulars: in vivo.
Data set [6] is described as follows: Bioavailability in rat at 1 mg/kg, iv and 5 mg/kg, po. The data set is classed as ADME, organism-based. Particulars: in vivo.
A short description of data set [7]: Aqueous solubility of the compound. The data set is classed as physicochemical. The note with it: buffer.
Data set [8] is filed under the species Rattus norvegicus. Nature of the data set: Anorectic activity in acute food intake rat model assessed as increase in fat oxidation. The format is functional, organism-based.
The subject of data set [9] is Mus musculus. Nature of the data set: Inhibition of CP-55940-induced hypothermia in ICR mouse at 1 mg/kg, sc administered 15 mins before CP-55940 challenge measured after 65 mins. The data set is classed as functional, organism-based. More on the design: dose 1 mg/kg.
Data set [10] relates to Mus musculus. The data set is described as follows: Inhibition of CP-55940-induced catalepsy in ICR mouse at 1 mg/kg, sc administered 15 mins before CP-55940 challenge measured after 90 mins. More on the design: dose 1 mg/kg. The format is functional, organism-based.
Data set [11] in a line: Solubility in sodium taurocholate/phosphatidyl choline salt medium. The data set is classed as physicochemical.
A short description of data set [12]: Oral bioavailability in rat at 500 mg/kg. The format is ADME, organism-based. The note with it: in vivo.
In data set [13] the test system is Mus musculus. Nature of the data set: Inhibition of CP-55940-induced analgesia in ICR mouse at 1 mg/kg, sc administered 15 mins before CP-55940 challenge measured after 45 mins by hot plate method. The format is functional, organism-based. More on the design: dose 1 mg/kg. (In general: Thermal pain tests record how soon the animal reacts.)
A short description of data set [14]: Volume of distribution at steady state in rat at 1 mg/kg, iv and 5 mg/kg, po. The data set is classed as ADME, organism-based. The note with it: in vivo, read-out: Vdss.
For data set [15], the system named is Rattus norvegicus. Nature of the data set: Toxicity in po dosed rat after 4 days. The data set is classed as organism-based. Particulars: in vivo, 96 h.
Data set [16] has as its target T1, Cannabinoid receptor 1 (Homo sapiens, UniProt P21554). The format is functional, cell-based, CHO-K1.
Description: Antagonist activity at human CB1 receptor expressed in CHOK1 cells assessed as inhibition of CP-55940-induced response after 10 mins by GTPgamma[35S] binding assay
For data set [17], the target named is T1, Cannabinoid receptor 1. The data set is described as follows: Binding affinity to CB1 receptor.
Data set [18] has as its system Rattus norvegicus. Nature of the data set: Antiobesity activity in fast-induced refeeding Sprague-Dawley rat model assessed as reduction in food intake at 3 mg/kg, po administered 30 mins prior to food intake measured every 10 mins for 2 hrs. The format is functional. On the set-up: scale not given: the % may be the effect or the level left.
The test system of data set [19] is Mus musculus. The data set is described as follows: Antiobesity activity in diet-induced obese mouse assessed as reduction in food intake at 3 mg/kg, po for 7 days. The format is functional. On the set-up: scale not given: the % may be the effect or the level left.
The test system of data set [20] is Mus musculus. The data set is described as follows: Antiobesity activity in diet-induced obese mouse assessed as reduction in weight gain at 3 mg/kg, po for 7 days. The data set is classed as functional. More on the design: scale not given: the % may be the effect or the level left.
Data set [21] deals with Mus musculus. The data set is described as follows: Antiobesity activity in diet-induced obese mouse assessed as reduction in food intake at 1 mg/kg, po for 7 days. The format is functional. On the set-up: scale not given: the % may be the effect or the level left.
Data set [22] has as its system Rattus norvegicus. The data set is described as follows: Inhibition of CP-55940-induced catalepsy in rat at >=1 mg/kg, sc administered 15 mins before CP-55940 challenge measured after 90 mins.
For data set [23], the system named is Rattus norvegicus. The data set is described as follows: Inhibition of CP-55940-induced hypothermia in rat at >=1 mg/kg, sc administered 15 mins before CP-55940 challenge measured after 65 mins.
Data set [24] can be described thus: Oral bioavailability in rat up to 50 mg/kg. The note with it: in vivo. The format is ADME, organism-based.
For data set [25], the system named is Mus musculus. Nature of the data set: Antiobesity activity in diet-induced obese mouse assessed as reduction in weight gain at 1 mg/kg, po for 7 days. The data set is classed as functional. More on the design: scale not given: the % may be the effect or the level left.
The subject of data set [26] is Rattus norvegicus. The data set is described as follows: Inhibition of CP-55940-induced analgesia in rat at >=1 mg/kg, sc administered 15 mins before CP-55940 challenge measured after 45 mins by hot plate method.
The test system of data set [27] is Rattus norvegicus. Nature of the data set: Antiobesity activity in fast-induced refeeding Sprague-Dawley rat model assessed as reduction in food intake at 1 mg/kg, po administered 30 mins prior to food intake measured every 10 mins for 2 hrs. The format is functional. On the set-up: scale not given: the % may be the effect or the level left.
In data set [28] the test system is Rattus norvegicus. The data set is described as follows: Inhibition of CP-55940-induced locomotor activity in rat at >=1 mg/kg, sc administered 15 mins before CP-55940 challenge measured after 25 mins.

T1 sequence (P21554 whole entry): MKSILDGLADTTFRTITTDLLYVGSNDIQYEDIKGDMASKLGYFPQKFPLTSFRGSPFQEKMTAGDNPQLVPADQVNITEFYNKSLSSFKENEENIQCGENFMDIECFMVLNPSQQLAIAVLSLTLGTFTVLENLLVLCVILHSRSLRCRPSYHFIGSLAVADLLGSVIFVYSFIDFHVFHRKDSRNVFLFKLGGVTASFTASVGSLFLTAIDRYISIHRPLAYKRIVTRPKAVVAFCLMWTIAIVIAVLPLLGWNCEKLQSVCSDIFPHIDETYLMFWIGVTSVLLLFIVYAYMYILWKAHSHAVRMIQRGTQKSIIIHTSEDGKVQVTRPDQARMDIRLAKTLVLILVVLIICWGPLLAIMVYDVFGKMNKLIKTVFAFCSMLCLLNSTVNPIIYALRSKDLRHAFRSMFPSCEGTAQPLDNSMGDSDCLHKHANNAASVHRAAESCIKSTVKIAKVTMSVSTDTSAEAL
Cannabinoid receptor 2, sequence (P34972 whole entry): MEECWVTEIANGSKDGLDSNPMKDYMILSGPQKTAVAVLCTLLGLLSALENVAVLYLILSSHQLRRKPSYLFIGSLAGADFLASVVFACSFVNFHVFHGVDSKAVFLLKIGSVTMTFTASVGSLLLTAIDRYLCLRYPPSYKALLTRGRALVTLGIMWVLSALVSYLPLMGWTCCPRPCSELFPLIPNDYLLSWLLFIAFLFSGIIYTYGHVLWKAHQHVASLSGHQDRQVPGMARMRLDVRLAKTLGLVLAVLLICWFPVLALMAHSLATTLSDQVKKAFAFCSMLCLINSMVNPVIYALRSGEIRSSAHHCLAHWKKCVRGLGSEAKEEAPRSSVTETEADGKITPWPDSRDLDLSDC

Molecule `CC(F)(F)CN1CCc2c(nn(-c3ccccc3Cl)c2-c2ccc(Cl)cc2)C1=O` yielded an inhibition constant (Ki) at Cannabinoid receptor 2 greater than 10000 nM. Besides, the figures for the Activity entry in the data set listed under Rattus norvegicus [1], in the data set filed under Rattus norvegicus [4] and in the data set on Rattus norvegicus [15] were “Non-toxic”, “Dose-dependent effect” and “Non-toxic”, respectively. Further, the result in the data set with Mus musculus [2], in the data set listed under Rattus norvegicus [3], in the data set filed under Rattus norvegicus [8], with Mus musculus [9], in the data set with Mus musculus [10] and in the data set on Mus musculus [13] was Active. The half-life in data set [5] is 3.6 h. Besides, the bioavailability was 99% in data set [6] and 50% in data set [12]. For the same molecule, the values for the solubility in data set [7] and in data set [11] were 0.2 ugA/ml and 18.5 ugA/ml, respectively. Besides, in data set [14], the Vd stood at 2.6 L/kg.

`CC(C)CN1CCc2c(nn(-c3ccccc3Cl)c2-c2ccc(Cl)cc2)C1=O`: the Ki at Cannabinoid receptor 1 [16] was found to be 9.8 nM; on Cannabinoid receptor 2, 1780 nM; at Cannabinoid receptor 1 [17] it was 2.5 nM.

For `Cc1c(C(=O)NN2CCCCC2)nn(-c2ccc(Cl)cc2Cl)c1-c1ccc(Cl)cc1` [RIMONABANT], the Activity came out at 43% in the data set on Rattus norvegicus [18], 21% with Mus musculus [19] and 5.2% in the data set with Mus musculus [20].

With `CC(C)N1CCOc2c(nn(-c3ccccc3Cl)c2-c2ccc(Cl)cc2)C1=O`, the figures for the Ki at Cannabinoid receptor 1 [16], on Cannabinoid receptor 2 and on Cannabinoid receptor 1 [17] were 4.8 nM, greater than 10000 nM and 1.3 nM, respectively.

As to `O=C1c2nn(-c3ccccc3Cl)c(-c3ccc(Cl)cc3)c2CCN1C1CCCC1`, at Cannabinoid receptor 1 [17], the affinity corresponds to a Ki of 24 nM.

Regarding `CC(F)(F)CN1CCc2c(nn(-c3ccccc3Cl)c2-c2ccc(Cl)cc2)C1`, the affinity on Cannabinoid receptor 1 [17], expressed as Ki, was 30 nM.

`O=C1c2nn(-c3ccccc3Cl)c(-c3ccc(Cl)cc3)c2CCN1CC(F)(F)F`: the inhibition constant Ki was 3.1 nM on Cannabinoid receptor 1 [16], greater than 10000 nM on Cannabinoid receptor 2 and 1.7 nM on Cannabinoid receptor 1 [17].

On to `CC(C)(C)N1CCc2c(nn(-c3ccccc3Cl)c2-c2ccc(Cl)cc2)C1=O`, for which the inhibition constant (Ki) on Cannabinoid receptor 1 [16] turned out to be 11 nM; at Cannabinoid receptor 2 it was 6810 nM; on Cannabinoid receptor 1 [17], 4.7 nM.

Take `O=C1c2nn(-c3ccccc3Cl)c(-c3ccc(Cl)cc3)c2OCCN1CC(F)(F)F`: the Ki was 1.5 nM on Cannabinoid receptor 1 [16], greater than 10000 nM at Cannabinoid receptor 2 and 1.9 nM on Cannabinoid receptor 1 [17].

For `CC(C)N1CCc2c(nn(-c3ccccc3Cl)c2-c2ccc(Cl)cc2)C1=O`, the values for the inhibition constant Ki on Cannabinoid receptor 1 [16], on Cannabinoid receptor 2 and at Cannabinoid receptor 1 [17] were 5.5 nM, greater than 10000 nM and 2.5 nM, respectively.

Molecule `Cc1nc2c(-c3ccc(Cl)cc3)n(-c3ccccc3Cl)nc2c(=O)n1CC(F)(F)F` registered an inhibition constant Ki at Cannabinoid receptor 2 greater than 10000 nM. In the data set listed under Rattus norvegicus [1], the Activity result is “Toxic”.

In turn, `COC(C)(C)CN1CCc2c(nn(-c3ccccc3Cl)c2-c2ccc(Cl)cc2)C1=O` yielded an inhibitory constant (Ki) on Cannabinoid receptor 2 of 162 nM.

As for `CCN1CCc2c(nn(-c3ccccc3Cl)c2-c2ccc(Cl)cc2)C1=O`, the Ki at Cannabinoid receptor 1 [16] turned out to be 25 nM; at Cannabinoid receptor 2, 23400 nM; at Cannabinoid receptor 1 [17] it was 4.7 nM.

Regarding `CC(F)(F)CN1CCOc2c(nn(-c3ccccc3Cl)c2-c2ccc(Cl)cc2)C1=O`, the values for the Activity in the data set on Mus musculus [21], in the data set with Mus musculus [25] and in the data set on Rattus norvegicus [27] were 23%, 5.9% and 40%, respectively. Also, the outcome in the data set with Rattus norvegicus [22], in the data set with Rattus norvegicus [23], in the data set with Rattus norvegicus [26] and with Rattus norvegicus [28] was Active. Besides, the bioavailability in data set [6] worked out at 42%; in data set [24], 51%. In [14], the Vd worked out at 2.6 L/kg.

With `CCC(F)(F)CN1CCOc2c(nn(-c3ccccc3Cl)c2-c2ccc(Cl)cc2)C1=O`, the Ki on Cannabinoid receptor 1 [16] is 0.7 nM; at Cannabinoid receptor 2, greater than 10000 nM; at Cannabinoid receptor 1 [17], 1.4 nM.
